Laboratory results as given in the NIST ThermoML archive (doi:10.1016/j.jct.2008.11.003).
Numbers after ± are expanded uncertainties.

How the values were obtained:
[1] = 101.33 kPa, Liquid; for mass density: Vibrating tube method; for viscosity: Cone and plate viscometry
[2] = refractive index (Na D-line) (dimensionless); settings: 101.33 kPa, Liquid, Standard Abbe refractometry

CC(=O)[O-].OCC[NH2+]CCO [2,2'-azanediylbis(ethanol) acetate]
Settings | mass density [kg/m3] | refractive index | viscosity [mPa·s]
[1], 293.15 K | 1173.85 ± 11 | – | –
[1], 298.2 K | – | – | 566.89 ± 120
[1], 303.15 K | 1166.39 ± 11 | – | –
[1], 303.2 K | – | – | 376.59 ± 77
[1], 308.2 K | – | – | 260.02 ± 53
[1], 313.15 K | 1160.12 ± 11 | – | –
[1], 313.2 K | – | – | 183.97 ± 37
[1], 318.2 K | – | – | 136.06 ± 28
[1], 323.15 K | 1153.96 ± 11 | – | –
[1], 323.2 K | – | – | 101.06 ± 20
[1], 328.2 K | – | – | 78.35 ± 16
[1], 333.15 K | 1147.64 ± 11 | – | –
[1], 333.2 K | – | – | 60.25 ± 12
[1], 338.2 K | – | – | 48.79 ± 9.8
[1], 343.15 K | 1141.22 ± 11 | – | –
[1], 343.2 K | – | – | 38.65 ± 7.8
[1], 348.2 K | – | – | 31.51 ± 6.3
[1], 353.15 K | 1134.66 ± 11 | – | –
[1], 363.15 K | 1127.97 ± 11 | – | –
[2], 293.15 K | – | 1.43431 ± 0.05 | –
[2], 298.15 K | – | 1.43338 ± 0.05 | –
[2], 303.15 K | – | 1.43238 ± 0.05 | –
[2], 308.15 K | – | 1.43137 ± 0.05 | –
[2], 313.15 K | – | 1.43029 ± 0.05 | –
[2], 318.15 K | – | 1.42916 ± 0.05 | –
[2], 323.15 K | – | 1.42798 ± 0.05 | –
[2], 328.15 K | – | 1.42673 ± 0.05 | –
[2], 333.15 K | – | 1.42547 ± 0.05 | –

CC(=O)[O-].[NH3+]CCO [2-hydroxyethylammonium acetate]
Settings | mass density [kg/m3] | refractive index | viscosity [mPa·s]
[1], 293.15 K | 1148.66 ± 11 | – | –
[1], 298.2 K | – | – | 313.15 ± 64
[1], 303.15 K | 1143.39 ± 11 | – | –
[1], 303.2 K | – | – | 224.68 ± 46
[1], 308.2 K | – | – | 162.91 ± 33
[1], 313.15 K | 1138.02 ± 11 | – | –
[1], 313.2 K | – | – | 120.26 ± 24
[1], 318.2 K | – | – | 92.56 ± 19
[1], 323.15 K | 1132.52 ± 11 | – | –
[1], 323.2 K | – | – | 70.68 ± 14
[1], 328.2 K | – | – | 56.56 ± 11
[1], 333.15 K | 1126.94 ± 11 | – | –
[1], 333.2 K | – | – | 43.91 ± 8.8
[1], 338.2 K | – | – | 34.98 ± 7
[1], 343.15 K | 1121.26 ± 11 | – | –
[1], 343.2 K | – | – | 29.04 ± 5.8
[1], 348.2 K | – | – | 24.05 ± 4.8
[1], 353.15 K | 1115.47 ± 11 | – | –
[1], 363.15 K | 1109.55 ± 11 | – | –
[2], 293.15 K | – | 1.43775 ± 0.05 | –
[2], 298.15 K | – | 1.43682 ± 0.05 | –
[2], 303.15 K | – | 1.43593 ± 0.05 | –
[2], 308.15 K | – | 1.4351 ± 0.05 | –
[2], 313.15 K | – | 1.43428 ± 0.05 | –
[2], 318.15 K | – | 1.43356 ± 0.05 | –
[2], 323.15 K | – | 1.43287 ± 0.05 | –
[2], 328.15 K | – | 1.43223 ± 0.05 | –
[2], 333.15 K | – | 1.43164 ± 0.05 | –

CC(O)C(=O)[O-].[NH3+]CCO (stereo not given) [2-hydroxyethylammonium lactate]
Settings | mass density [kg/m3] | refractive index | viscosity [mPa·s]
[1], 293.15 K | 1204.52 ± 11 | – | –
[1], 298.2 K | – | – | 254.25 ± 52
[1], 303.15 K | 1197.84 ± 11 | – | –
[1], 303.2 K | – | – | 181.45 ± 37
[1], 308.2 K | – | – | 133.32 ± 27
[1], 313.15 K | 1191.86 ± 11 | – | –
[1], 313.2 K | – | – | 100.02 ± 20
[1], 318.2 K | – | – | 76.88 ± 15
[1], 323.15 K | 1185.78 ± 11 | – | –
[1], 323.2 K | – | – | 60.18 ± 12
[1], 328.2 K | – | – | 48.12 ± 9.7
[1], 333.15 K | 1179.64 ± 11 | – | –
[1], 333.2 K | – | – | 38.12 ± 7.7
[1], 338.2 K | – | – | 31.02 ± 6.2
[1], 343.15 K | 1173.45 ± 11 | – | –
[1], 343.2 K | – | – | 24.98 ± 5
[1], 348.2 K | – | – | 21.26 ± 4.3
[1], 353.15 K | 1167.19 ± 11 | – | –
[1], 363.15 K | 1160.86 ± 11 | – | –
[2], 293.15 K | – | 1.43858 ± 0.05 | –
[2], 298.15 K | – | 1.43758 ± 0.05 | –
[2], 303.15 K | – | 1.43658 ± 0.05 | –
[2], 308.15 K | – | 1.43557 ± 0.05 | –
[2], 313.15 K | – | 1.43455 ± 0.05 | –
[2], 318.15 K | – | 1.43354 ± 0.05 | –
[2], 323.15 K | – | 1.43252 ± 0.05 | –
[2], 328.15 K | – | 1.43148 ± 0.05 | –
[2], 333.15 K | – | 1.43043 ± 0.05 | –

CC(=O)[O-].C[NH+](CCO)CCO [N-methyldiethanolammonium acetate]
Settings | mass density [kg/m3] | refractive index | viscosity [mPa·s]
[1], 293.15 K | 1141.42 ± 11 | – | –
[1], 298.2 K | – | – | 198.91 ± 40
[1], 303.15 K | 1132.76 ± 11 | – | –
[1], 303.2 K | – | – | 144.69 ± 29
[1], 308.2 K | – | – | 108.33 ± 22
[1], 313.15 K | 1125.85 ± 11 | – | –
[1], 313.2 K | – | – | 83.56 ± 17
[1], 318.2 K | – | – | 64.12 ± 13
[1], 323.15 K | 1118.75 ± 11 | – | –
[1], 323.2 K | – | – | 50.96 ± 10
[1], 328.2 K | – | – | 40.45 ± 8.1
[1], 333.15 K | 1111.46 ± 11 | – | –
[1], 333.2 K | – | – | 32.15 ± 6.5
[1], 338.2 K | – | – | 25.98 ± 5.2
[1], 343.15 K | 1103.98 ± 11 | – | –
[1], 343.2 K | – | – | 22.32 ± 4.5
[1], 348.2 K | – | – | 18.45 ± 3.7
[1], 353.15 K | 1096.28 ± 11 | – | –
[1], 363.15 K | 1088.36 ± 11 | – | –
[2], 293.15 K | – | 1.43302 ± 0.05 | –
[2], 298.15 K | – | 1.43215 ± 0.05 | –
[2], 303.15 K | – | 1.43122 ± 0.05 | –
[2], 308.15 K | – | 1.43023 ± 0.05 | –
[2], 313.15 K | – | 1.42922 ± 0.05 | –
[2], 318.15 K | – | 1.42813 ± 0.05 | –
[2], 323.15 K | – | 1.42702 ± 0.05 | –
[2], 328.15 K | – | 1.42583 ± 0.05 | –
[2], 333.15 K | – | 1.42462 ± 0.05 | –

CC(O)C(=O)O.OCCNCCO [diethanolamine lactate]
Settings | mass density [kg/m3] | refractive index | viscosity [mPa·s]
[1], 293.15 K | 1206.34 ± 11 | – | –
[1], 298.2 K | – | – | 288.56 ± 59
[1], 303.15 K | 1198.77 ± 11 | – | –
[1], 303.2 K | – | – | 204.15 ± 41
[1], 308.2 K | – | – | 148.54 ± 30
[1], 313.15 K | 1192.47 ± 11 | – | –
[1], 313.2 K | – | – | 110.25 ± 22
[1], 318.2 K | – | – | 84.34 ± 17
[1], 323.15 K | 1186.14 ± 11 | – | –
[1], 323.2 K | – | – | 65.45 ± 13
[1], 328.2 K | – | – | 51.78 ± 10
[1], 333.15 K | 1179.73 ± 11 | – | –
[1], 333.2 K | – | – | 42.15 ± 8.5
[1], 338.2 K | – | – | 33.45 ± 6.7
[1], 343.15 K | 1173.25 ± 11 | – | –
[1], 343.2 K | – | – | 27.15 ± 5.5
[1], 348.2 K | – | – | 22.45 ± 4.5
[1], 353.15 K | 1166.69 ± 11 | – | –
[1], 363.15 K | 1160.03 ± 11 | – | –
[2], 293.15 K | – | 1.44156 ± 0.05 | –
[2], 298.15 K | – | 1.44142 ± 0.05 | –
[2], 303.15 K | – | 1.44109 ± 0.05 | –
[2], 308.15 K | – | 1.44056 ± 0.05 | –
[2], 313.15 K | – | 1.43983 ± 0.05 | –
[2], 318.15 K | – | 1.43891 ± 0.05 | –
[2], 323.15 K | – | 1.43776 ± 0.05 | –
[2], 328.15 K | – | 1.43642 ± 0.05 | –
[2], 333.15 K | – | 1.43489 ± 0.05 | –
